In the experiment the target is T1, human GABAA α5β3γ2s receptor (Homo sapiens, UniProt P18507+P31644).
T1 sequence (P18507 1-475): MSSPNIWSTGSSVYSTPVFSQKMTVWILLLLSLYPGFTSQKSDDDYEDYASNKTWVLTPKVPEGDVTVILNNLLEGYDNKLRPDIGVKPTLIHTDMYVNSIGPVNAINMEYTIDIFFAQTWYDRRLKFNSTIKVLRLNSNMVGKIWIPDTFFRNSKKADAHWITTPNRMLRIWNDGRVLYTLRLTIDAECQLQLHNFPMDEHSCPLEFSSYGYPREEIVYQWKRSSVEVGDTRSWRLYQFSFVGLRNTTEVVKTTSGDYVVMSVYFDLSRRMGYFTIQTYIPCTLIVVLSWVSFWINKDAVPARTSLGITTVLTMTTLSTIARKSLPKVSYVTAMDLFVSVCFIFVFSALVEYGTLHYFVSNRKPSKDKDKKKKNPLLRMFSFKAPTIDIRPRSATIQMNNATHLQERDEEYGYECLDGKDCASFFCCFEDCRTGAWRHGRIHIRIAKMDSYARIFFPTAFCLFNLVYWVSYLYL
T1 sequence (P31644 1-462): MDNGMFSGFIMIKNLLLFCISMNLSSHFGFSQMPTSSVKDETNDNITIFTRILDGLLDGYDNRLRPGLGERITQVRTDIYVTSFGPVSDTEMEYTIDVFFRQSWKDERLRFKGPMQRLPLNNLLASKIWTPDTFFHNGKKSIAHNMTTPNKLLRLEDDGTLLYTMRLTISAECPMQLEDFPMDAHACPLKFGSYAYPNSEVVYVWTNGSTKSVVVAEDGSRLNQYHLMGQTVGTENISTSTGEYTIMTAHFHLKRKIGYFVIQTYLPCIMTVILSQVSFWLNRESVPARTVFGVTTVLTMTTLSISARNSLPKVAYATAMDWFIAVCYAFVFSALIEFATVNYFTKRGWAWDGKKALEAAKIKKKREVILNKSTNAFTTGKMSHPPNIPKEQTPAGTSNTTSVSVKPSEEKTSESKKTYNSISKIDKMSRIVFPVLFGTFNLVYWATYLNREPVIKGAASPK
The experiment can be described thus: Assay A: in vitro inhibition of 3H-flumazenil binding, HEK cells expressing the human GABAA α5β3γ2s receptor. As for the experimental part:
Cell Cultures and Membrane Preparation
HEK-293 cell lines with stable expression of recombinant human GABAA α5ß3 γ2s receptors (plasmid H46/E9/B10) are seeded in T175 polystyrene flasks or roller bottles (1700 cm^2, Fisher Scientific CCI-431191), and cultured (37° C., 5% CO2) in Dulbecco's Modified Eagle Medium (DMEM) with GlutaMAX™ supplemented with 10% fetal bovine serum and one or both of the following antibiotics: hygromycin B ([…]; γ2 subunit) or G418 (0.5 mg/ml; […]).
When the cultures reach confluency, the DMEM is removed and the cells are washed (10 ml for T175 flasks; 50 ml for roller bottles) once in Dulbecco's Phosphate Buffered Saline (DPBS). Following addition of DPBS to the cultures (10 ml for T175 flasks; 100 ml for roller bottles) for approximately 5 min cells are easily detached from the surface by shaking or tapping the flask gently. The cell suspension is transferred to Falcon tubes and centrifuged at 23,500×g for 10 min at 2° C. The pellet is washed once in 15 ml Tris-citrate buffer (50 mM, pH 7.1) using an Ultra-Turrax homogenizer and centrifuged at 2° C. for 10 min at 27,000×g. The washed pellet is re-suspended in 15 ml Tris-citrate buffer and frozen at −80° C. until the day of the binding experiment.
On the day of the experiment the cell membrane preparation is thawed and centrifuged at 2° C. for 10 min at 27,000×g. The pellet is re-suspended, using an Ultra-Turrax homogenizer in Tris-citrate buffer, to 15-50 µg protein per assay and then used for binding assays.
Non-specific binding is determined using clonazepam ([…]).
All dilutions of test compounds and incubation of assay are performed in glass vials/96-vial plates. […] Compounds are dissolved in 100% DMSO (10 mM stock), diluted in 48% ethanol-water, and tested in triplicate in serial 1:3 or 1:10 dilutions. When screening large numbers of compounds only one concentration of each compound is tested in single wells. Reference compounds are not included routinely, but for each experiment performed total and nonspecific binding is compared to data obtained during validation of the assay.
Binding is either terminated by rapid filtration onto
1) Whatman GF/C glass fibre filters using a Brandel Cell harvester, followed by 5 washes with 1 ml ice-cold buffer or onto 2) UniFilter GF/C glass fibre filter plates using a Tomtec cell harvester, followed by washing with approximately 5 ml ice-cold buffer.
The amount of radioactivity on the filters is determined by conventional liquid scintillation counting using a
1) Tri-Garb™ counter (PerkinElmer Life and Analytical Sciences) for separate large filters or
2) Topcount™ counter (PerkinElmer Life and Analytical Sciences) for 96-well filter plates.
Specific binding is total binding minus non-specific binding.
The IC50 value for a test compound is determined based on the equation: […]
where B is the binding in percentage of total specific binding; C is the concentration of test compound; and n is the Hill coefficient. For screening purposes n is set to 1. The IC50 value is calculated from the concentration response curves by the non-linear regression method using the curve-fitting program GraphPad Prism.
The Ki value for a test compound can be calculated from the IC50 value using the equation by Cheng and Prusoff: […]

The mark [1] stands for this setting: read-out: Assay A: GABAA α 5 β 3 γ 2s Ki.
The mark [2] stands for this setting: compounds of the present invention, read-out: Assay A: GABAA α5 β3 γ2S Ki.

Read-outs that look alike come from different tables or passages of the source.

For orientation: Ki means the equilibrium dissociation constant of an inhibitor or competing ligand from its target. Consider `Cc1nnn(-c2ccc(C(F)F)cn2)c1COc1ccc(-c2ccc(=O)n(C)c2)nn1` [Example 1, 5-[6-({1-[5-(difluoromethyl)pyridin-2-yl]-4-methyl-1H-1,2,3-triazol-5-yl}methoxy)pyridazin-3-yl]-1-methyl-1,2-dihydropyridin-2-one], for which, under setting [1], the Ki is 10 nM.
Take `Cc1nnn(-c2ccc(C(F)F)cn2)c1COc1ccc(-c2cnc(N)nc2)nn1` [Example 2]: under setting [1], the Ki was 15 nM.
As to `Cc1cc(-c2ccc(OCc3c(C)nnn3-c3ccc(C(F)F)cn3)nn2)cnn1` [Example 3], the Ki under setting [1] was found to be 13 nM.
On the same count and under the same terms, with `Cc1nnn(-c2ccc(C(F)F)cn2)c1COc1ccc(-c2cn[nH]c2)nn1` [Example 4] the figure was 17 nM.
Regarding `Cc1nnn(-c2ccc(C(F)F)cn2)c1COc1ccc(-c2cc[nH]n2)nn1` [Example 5], the Ki is, setting by setting: under setting [2], 16 nM; under setting [1], 16 nM.
As for `Cc1nnn(-c2ccc(C(F)F)cn2)c1COc1ccc(-c2cccc(C(N)=O)c2)nn1` [Example 6], under setting [1], the Ki is 15 nM.
In the case of `Cc1nnn(-c2ccc(C(F)F)cn2)c1COc1ccc(-c2cnn(CC#N)c2)nn1` [Example 7], the Ki under setting [1] is 26 nM.
Consider `Cc1nnn(-c2ccc(C(F)F)cn2)c1COc1ccc(-c2ccc(C#N)nc2)nn1` [Example 8], for which the Ki under setting [1] came out at 18 nM.
In the case of `Cc1nnn(-c2ccc(C(F)F)cn2)c1COc1ccc(-c2ccc(C#N)s2)nn1` [Example 12], the inhibition constant (Ki) under setting [1] worked out at 19 nM.
On the same count and under the same terms, with `CNc1cccc(-c2ccc(OCc3c(C)nnn3-c3ccc(C(F)F)cn3)nn2)n1` [Example 14] the figure was 33 nM; with `Cc1n[nH]c(C)c1-c1ccc(OCc2c(C)nnn2-c2ccc(C(F)F)cn2)nn1` [Example 15], 40 nM.
Take `Cc1nnn(-c2ccc(C(F)F)cn2)c1COc1ccc(-c2ccc(S(C)(=O)=O)nc2)nn1` [Example 16]: the Ki under setting [1] amounted to 21 nM.
Take `Cc1nnn(-c2ccc(C(F)F)cn2)c1COc1ccc(-c2ccnnc2)nn1` [Example 17]: under setting [1], the inhibition constant Ki was determined as 16 nM.
Consider `Cc1ncc(-c2ccc(OCc3c(C)nnn3-c3ccc(C(F)F)cn3)nn2)o1` [Example 18], for which the Ki under setting [1] came to 14 nM.
For the compound `Cc1nnn(-c2ccc(C(F)F)cn2)c1COc1ccc(-c2ccc(N)nc2)nn1` [Example 19], the Ki under setting [1] was 17 nM.
For `Cc1nnn(-c2ccc(C(F)F)cn2)c1COc1ccc(-c2c[nH]c(=O)c(F)c2)nn1` [Example 20], the Ki under setting [1] was found to be 16 nM.
In the case of `CCn1cc(-c2ccc(OCc3c(-c4ccc(C(F)F)cn4)nnn3C)nn2)cn1` [Example 22], under setting [1], the Ki amounted to 19 nM.
Still for that read-out and setting: the value for `Cn1nnc(-c2ccc(C(F)F)cn2)c1COc1ccc(-c2ccc(S(C)(=O)=O)nc2)nn1` [Example 23] was 49 nM; that for `Cn1nnc(-c2ccc(C(F)F)cn2)c1COc1ccc(-c2cn[nH]c2)nn1` [Example 24] was 32 nM.
Regarding `Cn1nnc(-c2ccc(C(F)F)cn2)c1COc1ccc(-c2ccc(N)nc2)nn1` [Example 25], the inhibitory constant (Ki) under setting [1] came out at 23 nM.
On to `Cn1nnc(-c2ccc(C(F)F)cn2)c1COc1ccc(-c2cccc(C(N)=O)c2)nn1` [Example 28], for which the Ki under setting [1] amounted to 24 nM.
With `Cc1c(-c2ccc(OCc3c(-c4ccc(C(F)F)cn4)nnn3C)nn2)cc(C#N)n1C` [Example 29], under setting [1], the Ki was 19 nM.
For `Cc1nn(C)cc1-c1ccc(OCc2c(-c3ccc(C(F)F)cn3)nnn2C)nn1` [Example 30], under setting [1], the Ki came to 24 nM.
Consider `COc1ncc(-c2ccc(OCc3c(-c4ccc(C(F)F)cn4)nnn3C)nn2)cn1` [Example 31], for which the Ki under setting [1] was found to be 23 nM.
For the compound `Cn1nnc(-c2ccc(C(F)F)cn2)c1COc1ccc(-c2cnn(C3CCC3)c2)nn1` [Example 32], under setting [1], the Ki turned out to be 18 nM.
On to `Cc1c(-c2ccc(OCc3c(-c4ccc(C(F)F)cn4)nnn3C)nn2)cnn1C` [Example 33], for which, under setting [1], the Ki came out at 24 nM.
As for `Cn1nnc(-c2ccc(C(F)F)cn2)c1COc1ccc(-c2cnc3nonc3c2)nn1` [Example 35], the Ki under setting [1] came out at 49 nM.
For `Cc1nnn(-c2ccc(C(F)F)cn2)c1COc1ccc(-n2cc(C#N)cn2)nn1` [Example 37], the Ki under setting [1] came out at 11 nM.
As for `Cc1nnn(-c2ccc(C(F)F)cn2)c1COc1ccc(-n2ncnc2C)nn1` [Example 38], under setting [1], the Ki turned out to be 12 nM.
Consider `Cn1nnc(-c2ccc(C(F)F)cn2)c1COc1ccc(-c2cnccn2)nn1` [Example 39], for which, under setting [1], the Ki was 39 nM.
In the case of `Cc1nnn(-c2ccc(C(F)F)cn2)c1COc1ccc(-n2cnc(C#N)c2)nn1` [Example 42, 1-[6-({1-[5-(difluoromethyl)pyridin-2-yl]-4-methyl-1H-1,2,3-triazol-5-yl}methoxy)pyridazin-3-yl]-1H-imidazole-4-carbonitrile], the Ki reads like this: under setting [2], 0.014 nM; under setting [1], 14 nM.
In the case of `Cc1nnn(-c2ccc(C(F)F)cn2)c1COc1ccc(-n2nccn2)nn1` [Example 43], the Ki under setting [1] was 28 nM.
On the same count and under the same terms, the value for `Cc1ncnn1-c1ccc(OCc2c(-c3ccc(C(F)F)cn3)nnn2C)nn1` [Example 48, 3-({4-[5-(difluoromethyl)pyridin-2-yl]-1-methyl-1H-1,2,3-triazol-5-yl}methoxy)-6-(5-methyl-1H-1,2,4-triazol-1-yl)pyridazine] was 82 nM; that for `Cn1nnc(-c2ccc(C(F)F)cn2)c1COc1ccc(-n2cc(C#N)cn2)nn1` [Example 49] was 25 nM; that for `Cn1nnc(-c2ccc(C(F)F)cn2)c1COc1ccc(-n2cccn2)nn1` [Example 50] was 22 nM.
With `Cn1nnc(-c2ccc(C(F)F)cn2)c1COc1ccc(-n2cnc(C#N)c2)nn1` [Example 52], the Ki under setting [1] was 35 nM.
Turning to `Cn1nnc(-c2ccc(C(F)F)cn2)c1COc1ccc(-n2ccc(C#N)n2)nn1` [Example 53], the Ki under setting [1] was 19 nM.
For `Cc1nnn(-c2ccc(C(F)F)cn2)c1COc1ccc(-c2cnccn2)nn1` [Example 56, 3-({1-[5-(difluoromethyl)pyridin-2-yl]-4-methyl-1H-1,2,3-triazol-5-yl}methoxy)-6-(pyrazin-2-yl)pyridazine], the Ki came to 0.01 nM under setting [2] and 10 nM under setting [1].

The values above are taken from patent US20230286946A1, “DIFLUOROMETHYL-PYRIDIN-2-YL TRIAZOLES” (Boehringer Ingelheim International GmbH, priority 2020, published 2023).
